System: IL-1β secretion, THP-1 cells
Assay: IL-1β secretion assay in PMA-differentiated THP-1 cells stimulated with LPS and nigericin (ELISA readout)
Format: cell-based
Conditions: 25 ng/mL LPS then nigericin
Description: Compounds as provided herein were tested in the following assay. Cell culture medium employed contained RPMI 1640 medium (89%), FBS (10%), Pen/Strep (1%), and 2-mercaptoethanol (0.05 mM). Freezing medium was made up of 90% FBS and 10% DMSO. THP-1 cells were removed from the liquid nitrogen and placed into a 37° C. water bath to thaw, until signs of ice dissipated. The cells were then added to 9 mL of warm cell culture medium and centrifuged for 5 minutes at 1000 rpm. The supernatant was discarded, and the cells were resuspended in new cell culture medium. THP-1 cells were then split and cultured in the cell culture medium, being passaged every 2-3 days with the cell density will be maintained between 5×10^5 and 1.5×10^6 viable cells/mL.
PMA was dissolved in DMSO to make a stock solution at 5 mg/ml and stored in 10 µl aliquots at -20° C. for single use. PMA is added to normal growth medium. LPS was diluted with 1 mL of water solution to provide a 1 mg/mL stock solution and stored in 15 µl aliquots at -20° C. for single use. Nigericin is diluted in ice cold 100% ethanol to 5 mg/ml (6.7 mM) and stored in 75 µL aliquots at -20° C. for single use. Serum-free media contains RPMI 1640 medium (99%), Pen/Strep (1%), and 2-mercaptoethanol (0.05 mM). The two control conditions used to qualify and normalize test compound dose-response curves were as follows: High Control = 25 ng/mL LPS, 5 µM Nigericin, 0.5% DMSO, Low Control = 25 ng/mL, LPS, 0.5% DMSO.
THP-1 cells were diluted to provide a suspension at a concentration of 1.0×10^6 cells/mL with the total volume of suspension required to enable the desired number of assay plates. The growth media was supplemented with PMA (5 ng/mL final concentration) and the cells were incubated at 37° C. under a humidified atmosphere of 5% CO2 for 40 h.
All media was carefully aspirated from each culture flask. The cells were washed carefully with 1x DPBS. The cells were then briefly digested with trypsin LE for 5 minutes at 23° C. and immediately resuspended in cell growth media. After resuspension, the cells were centrifuged at 1000 rpm for 3 minutes and the supernatant was discarded. The cells were resuspended in DPBS and once again centrifuged at 1000 rpm for 5 minutes. The supernatant was discarded and the cell pellet was resuspended in serum-free media supplemented with LPS (25 ng/mL final concentration) to enable the distribution of 30 K THP-1 cells within 45 µL of media into each well of 384-well PDL-coated plates. The 384-well plates were then incubated at 37° C. under a humidified atmosphere of 5% CO2 for 2 h. Following this period, test compounds were dispensed by Tecan across the desired concentration range with all wells normalized to a final 0.5 % DMSO concentration. The plates were then then incubated at 37° C. under a humidified atmosphere of 5% CO2 for 1 h. Following this period, 5 µL of the […] nigericin stock solution was added to each of the appropriate wells and plates were centrifuged at 1000 rpm for 30 seconds. The plates were the immediately reintroduced to the incubator at 37° C. under a humidified atmosphere of 5% CO2 for 2 h. After this time, 35 µL/well of supernatant was collected and transferred into v-bottom plate and centrifuged at 1000 rpm for 1 minute. These supernatant aliquots were analyzed using an IL-Iβ detection kit as described below. If needed, the test samples could be snap frozen and stored at -80° C. until analyzed.
To prepare each ELISA plate, capture antibody (mAb Mt175) was diluted with PBS to a final concentration of 2 µg/mL and then 20 µL of this solution was added to each well of the ELISA plate. Each plate was allowed to incubate overnight at 4° C. The next day, the capture antibody solution was removed and discarded. Each ELISA plate was washed 4 times with PBST followed by the addition of 25 µL/well of blocking buffer (Licor-927-40010) supplemented with 0.1% Tween 20. Each ELISA plate was then allowed to incubate for 1 hour at 23° C. […]

[1] = Homo sapiens, THP-1, inhibition of IL-1β secretion, class column of Table 3
[2] = Homo sapiens, THP-1, inhibition of IL-1β secretion, numeric column of Table 3

| Compound | IC50 [1] [µM] | IC50 [2] [µM] | IC50 (inhibition of IL-1β secretion, class column of Table 3) [µM] | IC50 (inhibition of IL-1β secretion, numeric column of Table 3) [µM] |
| --- | --- | --- | --- | --- |
| CC(C)c1nn(CC(=O)NCC2CCCN2C(=O)OC(C)(C)C)c(=O)c2ccc(Br)cc12 (stereo not shown) [Example 107, tert-butyl 2-[[[2-(6-bromo-4-isopropyl-1-oxo-phthalazin-2-yl)acetyl]amino]methyl]pyrrolidine-1-carboxylate] | > 15 | > 50 | – | – |
| CO[C@H]1C[C@@H](NC(=O)Cn2nc(C(C)C)c3cc(Br)ccc3c2=O)C1 [Example 77, 2-(6-bromo-1-oxo-4-propan-2-ylphthalazin-2-yl)-N-(3-cis-methoxycyclobutyl)acet amide] | < 10 | 3.85 | – | – |
| CC(C)c1nn(CC(=O)N[C@H]2C[C@@](C)(O)C2)c(=O)c2ccc(Br)cc12 [Example 1, 2-(6-Bromo-4-isopropyl-1-oxophthalazin-2(1H)-yl)-N-(cis-3-hydroxy-3-methylcyclobutyl)acetamide] | < 10 | 0.03 | – | – |
| CC(C)c1nn(CC(=O)NCC2CN(C)CCO2)c(=O)c2ccc(Br)cc12 (stereo not shown) [Example 65, 2-(6-bromo-1-oxo-4-propan-2-ylphthalazin-2-yl)-N-[(4-methylmorpholin-2-yl)methyl]acetamide] | > 15 | 22.7 | – | – |
| CC(C)c1nn(CC(=O)NC2(C)CCOCC2)c(=O)c2ccc(Br)cc12 [Example 44, 2-(6-bromo-1-oxo-4-propan-2-ylphthalazin-2-yl)-N-(4-methyloxan-4-yl)acetamide] | 10 to 15 | 12.3 | – | – |
| O=C(Cn1nc([C@H]2C[C@H]2F)c2cc(Br)ccc2c1=O)Nc1ncc(F)cn1 (single isomer, unassigned) [Example 166, 2-[6-bromo-4-[2-cis-fluorocyclopropyl]-1-oxophthalazin-2-yl]-N-(5-fluoropyrimidin-2-yl)acetamide] | – | – | < 10 | 0.237 |
| O=C(Cn1nc(CF)c2cc(C(F)(F)F)ccc2c1=O)Nc1ncc(F)cn1 [Example 147, 2-[4-(fluoromethyl)-1-oxo-6-(trifluoromethyl)phthalazin-2-yl]-N-(5-fluoropyrimidin-2-yl)acetamide] | < 10 | 0.279 | – | – |
| Cc1cnc(NC(=O)Cn2nc(OC3CC3)c3cc(Br)ccc3c2=O)nc1 [Example 152] | < 10 | 0.173 | – | – |
| CC(C)(C)OC(=O)N1CCC[C@@H](NC(=O)Cn2nc(OC3CC3)c3cc(Br)ccc3c2=O)C1 [Example 175, tert-butyl (3R)-3-[[2-(6-bromo-4-cyclopropyloxy-1-oxophthalazin-2-yl)acetyl]amino]piperidine-1-carboxylate] | < 10 | 8.65 | – | – |
| CC(C)c1nn(CC(=O)N[C@H]2C[C@@](C)(O)C2)c(=O)c2cc(Br)ccc12 [Example 2, 2-(7-Bromo-4-isopropyl-1-oxophthalazin-2(1H)-yl)-N-(cis-3-hydroxy-3-methylcyclobutyl)acetamide] | < 10 | 2.11 | – | – |
| O=C(Cn1nc(C(F)CF)c2cc(Br)ccc2c1=O)Nc1ncc(F)cn1 (stereo not shown) [Example 139, 2-[6-bromo-4-(1,2-difluoroethyl)-1-oxophthalazin-2-yl]-N-(5-fluoropyrimidin-2-yl)acetamide] | < 10 | 0.318 | – | – |
| O=C(Cn1nc(OC2CC2)c2cc(C3CC3)ccc2c1=O)Nc1ncc(F)cn1 [Example 173, 2-(6-cyclopropyl-4-cyclopropyloxy-1-oxophthalazin-2-yl)-N-(5-fluoropyrimidin-2-yl)acetamide] | < 10 | 0.12 | – | – |
| O=C(Cn1nc(CC(F)(F)F)c2cc(Br)ccc2c1=O)Nc1ncncc1F [Example 91, 2-[6-bromo-1-oxo-4-(2,2,2-trifluoroethyl)phthalazin-2-yl]-N-(5-fluoropyrimidin-4-yl)acetamide] | < 10 | 0.489 | – | – |
| O=C(Cn1nc(CF)c2cc(Br)ccc2c1=O)Nc1ncc(F)cn1 [Example 142, 2-[6-bromo-4-(fluoromethyl)-1-oxophthalazin-2-yl]-N-(5-fluoropyrimidin-2-yl)acetamide] | < 10 | 0.091 | – | – |
| CCN1CCC[C@@H](NC(=O)Cn2nc(C(F)(F)F)c3cc(Br)ccc3c2=O)C1 [Example 89, 2-[6-bromo-1-oxo-4-(trifluoromethyl)phthalazin-2-yl]-N-[(3R)-1-ethylpiperidin-3-yl]acetamide] | < 10 | 0.764 | – | – |
| CO[C@H]1C[C@H](Oc2nn(CC(=O)Nc3ncc(F)cn3)c(=O)c3ccc(Br)cc23)C1 [Example 160] | < 10 | 1.32 | – | – |

More lines, now with the values ahead:

| IC50 [1] [µM] | IC50 [2] [µM] | IC50 (inhibition of IL-1β secretion, class column of Table 3) [µM] | IC50 (inhibition of IL-1β secretion, numeric column of Table 3) [µM] | Compound |
| --- | --- | --- | --- | --- |
| < 10 | 2.13 | – | – | CC(C)c1nn(CC(=O)Nc2ccnn2C2CCC2)c(=O)c2ccc(Br)cc12 [Example 123, 2-(6-bromo-1-oxo-4-propan-2-ylphthalazin-2-yl)-N-(2-cyclobutylpyrazol-3-yl)acetamide] |
| < 10 | 6.45 | – | – | CC(C)c1nn(CC(=O)NC2CC(n3cccn3)C2)c(=O)c2ccc(Br)cc12 (stereo not shown) [Example 117, 2-(6-bromo-1-oxo-4-propan-2-ylphthalazin-2-yl)-N-(3-pyrazol-1-ylcyclobutyl)acetamide] |
| < 10 | 0.943 | – | – | CC(C)c1nn(CC(=O)Nc2ccc3cnn(C)c3c2)c(=O)c2ccc(Br)cc12 [Example 61, 2-(6-bromo-1-oxo-4-propan-2-ylphthalazin-2-yl)-N-(1-methylindazol-6-yl)acetamide] |
| < 10 | 0.423 | – | – | CC(C)c1nn(CC(=O)Nc2ccnnc2)c(=O)c2ccc(Br)cc12 [Example 121, 2-(6-bromo-1-oxo-4-propan-2-ylphthalazin-2-yl)-N-pyridazin-4-ylacetamide] |
| < 10 | 0.398 | – | – | CC(C)c1nn(CC(=O)Nc2ncncc2F)c(=O)c2ccc(Br)nc12 [Example 22, 2-(2-bromo-5-oxo-8-propan-2-ylpyrido[2,3-d]pyridazin-6-yl)-N-(5-fluoropyrimidin-4-yl)acetamide] |
| < 10 | 3.23 | – | – | CC(C)c1nn(CC(=O)Nc2cncnc2)c(=O)c2ccc(Br)cc12 [Example 56, 2-(6-bromo-1-oxo-4-propan-2-ylphthalazin-2-yl)-N-pyrimidin-5-ylacetamide] |
| < 10 | 1.32 | – | – | Cc1ncc(F)c(NC(=O)Cn2nc(C(C)C)c3cc(Br)ccc3c2=O)n1 [Example 31, 2-(6-bromo-1-oxo-4-propan-2-ylphthalazin-2-yl)-N-(5-fluoro-2-methylpyrimidin-4-yl)acetamide] |
| < 10 | 0.235 | – | – | CC(C)c1nn(CC(=O)Nc2ccncc2F)c(=O)c2ccc(Br)cc12 [Example 8, 2-(6-Bromo-4-isopropyl-1-oxophthalazin-2(1H)-yl)-N-(3-fluoropyridin-4-yl)acetamide] |
| < 10 | 1.03 | – | – | Cc1cnc(NC(=O)Cn2nc(C(C)C)c3cc(Br)ccc3c2=O)c(F)c1 [Example 124, 2-(6-bromo-1-oxo-4-propan-2-ylphthalazin-2-yl)-N-(3-fluoro-5-methylpyridin-2-yl)acetamide] |
| < 10 | 1.7 | – | – | CC(C)c1nn(CC(=O)Nc2ccnn2C)c(=O)c2ccc(Br)cc12 [Example 49, 2-(6-bromo-1-oxo-4-propan-2-ylphthalazin-2-yl)-N-(2-methylpyrazol-3-yl)acetamide] |

From patent publication US20230357162A1, “COMPOUNDS, COMPOSITIONS AND METHODS” (Denali Therapeutics Inc., priority 2020, published 2023)
